Data reported in patent US11879021B2, “Cyclic peptides and uses thereof” (UNIVERSITÉ DE MONTRÉAL, priority 2016, dated 2024).

Tests used:
[1] = system: R-FSL-1 (TLR2 agonist)-induced TNF-α and CCL-2 release in RAW macrophages; experiment: R-FSL-1-induced TNF-α and CCL-2 release in RAW macrophages; type: cell-based, murine; conditions: 10^−7 M
Experimental: The murine RAW1 macrophage cell line was obtained from American Type Cell Collection (ATCC #TIB-71). RAW cells were seeded at 150,000 cells per well in a 48-well plate (Costar® #3548) and weaned overnight in medium (DMEM supplemented 1% penicillin/streptomycin) at 37° C. with 5% CO2. The next day, the medium was changed to DMEM-1% penicillin/streptomycin supplemented with 0.2% BSA. The cells were first pretreated with 300 μL of azapeptides DBG178 (MPE-133, reference standard), 25 (MPE-210), 26 (MPE-266), 28 (MPE-268), 32 (MPE-267), 33 (MPE-298), 38 (MPE-308), 35 (MPE-300), 39 (MPE-310) and azaLys6-GHRP-6 (as negative control) at 10^-7M for 30 min. Then, […] of the TLR2 agonist, R-FSL-1 (300 ng/ml final concentration, R-FSL-1, Invivogen® #L7022) was added for 4 h period of incubation at 37° C. with 5% CO2. At the end of the incubation period, media were collected and stored at −80° C. for TNF-α and CCL-2 assays using ELISA kits (EbioScience® #88-7391 and #88-7324). Results were analyzed by analysis of variance (ANOVA) with post hoc comparisons using Dunnett's test with a statistical software package (Graph Pad Prism® version 7.0). P<0.05 was considered statistically significant.

apoE−/− mice = experiment: Murine atherosclerosis model (apoE−/− mice on atherogenic diet), aortic lesions; type: in vivo; conditions: 300 nmol/kg daily s.c. for 8 weeks
Experimental: Experiments were performed in male apoE−/− mice fed an atherogenic diet (D12108, cholate-free AIN-76A semi-purified diet, Research Diets Inc., New Brunswick, NJ) from 4 weeks of age. MPE-298 (300 nmol/kg), MPE-267 (300 nmol/kg) or vehicle (0.9% NaCl), were administered by daily by subcutaneous (s.c.) injections for 8 weeks, from 12 weeks of age, as shown schematically in FIG. 8A.

[2] = system: mice exposed to intense blue light; type: in vivo; conditions: 289 nmol/kg daily s.c. for 7 days
Excerpt: The acute model of light-induced retinal degeneration uses short exposure to blue light to induce photoreceptor cell death leading to loss of vision (Grimm and Remé, Methods Mol Biol. 2013; 935: 87-97). Mice were exposed mice to intense blue light (wavelength=425 nm; exposure intensity=6000 lux) for five (5) successive days. The treatment was started one day after start of blue-light exposure (D1), for seven (7) successive days of daily subcutaneous (s.c) administration at 289 nmol/kg of test item solutions (MPE-001 and MPE-298). On Day 7, mice were dark adapted for electroretinography (ERG) analysis. […]
ERGs were recorded from wildtype and age matched knockout mice on Espion® ERG Diagnosys machine and a ColorDome® Ganzfeld stimulator (Diagnosys LLC, Lowell, MA). […]
Flash ERG were measured using corneal DTL Plus electrodes (Diagnosys® LLC). […] Scotopic responses were simultaneously recorded from both eyes of the dark-adapted animals at the following increasing light intensities: 0.5, 1.0, 3.0 and 10.0 cd-s/m^2. […] The amplitude and latency of major ERG components were measured with the Espion® software (Diagnosys® LLC). […] The ERG a-wave amplitudes were measured from the baseline to the primary negative peak and the b-wave was measured from the trough of the a-wave to the maximum of the […] positive peak. […]

[3] = system: R-FSL-1 (TLR2 agonist)-induced TNF-α and CCL-2 release in RAW macrophages; experiment: R-FSL-1-induced TNF-α and CCL-2 release in RAW macrophages; type: cell-based, murine; conditions: 10^−7 M; remark: listed apart in the source

C=CCN1CC#CCN(NC(=O)[C@H](C)N)C(=O)N[C@H](Cc2c[nH]c3ccccc23)C(=O)N[C@@H](C)C(=O)N[C@@H](Cc2c[nH]c3ccccc23)C(=O)N[C@H](Cc2ccccc2)C(=O)N[C@H](C(N)=O)CCCC1 [MPE-298]
effect on R-FSL-1-induced CCL-2 release [1]: significant inhibitory effect
effect on R-FSL-1-induced TNF-α release [1]: significant inhibitory effect
reduction of aortic lesions relative to 0.9% NaCl (vehicle) (apoE−/− mice): 42%
subretinal inflammation (immune cell infiltration, notably IL-1β-expressing immune cells, in the retina) ([2]; F4/80-positive cells in RPE flatmounts): reduce
outer nuclear layer (ONL) thickness ([2]; mice exposed to blue light 6000 lux): preserved
inhibitory effect on R-FSL-1-induced CCL-2 release compared with reference standard DBG178 (MPE-001) [3]: significantly higher
